# Where “and” joins values, the source holds several entries; their conditions need not be identical. Equal entries are not always repeated.
# Legend:
# Anas platyrhynchos = conditions: short-term; oral; feed; mortality
# Apis mellifera = conditions: acute, duration: 48 hours, mortality
# Daphnia magna = conditions: chronic/long-term; duration: 22 days; reproduction
# Lepomis macrochirus = conditions: acute; duration: 96 hours; mortality
# Tagia sp. = conditions: acute; duration: 14 days; mortality
# Typhlodromus pyri = conditions: chronic/long-term; duration: 14 days; reproduction
structure (smiles),measurement,setting,value
CSC(=O)c1cccc2nnsc12 [Acibenzolar-S-methyl],LC50,Anas platyrhynchos,> 1540 mg/kg-day
same,LD50,Apis mellifera; dermal,> 100 µg/piece
same,LD50,"Apis mellifera; oral, unspecified",128 µg/piece
same,LD50,"Colinus virginianus; acute, oral, mortality",> 2000 mg/kg
same,NOEC,"Colinus virginianus; reproduction developmental, reproduction",61 mg/kg-day
same,NOEC,Daphnia magna,44 µg/L
same,LC50,Lepomis macrochirus,2.8 mg/L and 1.6 mg/L
same,LC50,"Oncorhynchus mykiss; acute, duration: 96 hours, mortality",0.4 mg/L and 1.1 mg/L and 0.88 mg/L
same,NOEC,"Oncorhynchus mykiss; chronic/long-term, duration: 87 days",26 µg/L
same,LD50,"Rattus norvegicus; acute, oral, mortality",> 2000 mg/kg
same,LOAEL,"Rattus norvegicus; reproduction developmental, body weight",10 mg/kg-day
same,NOAEL,"Rattus norvegicus; reproduction developmental, oral, diet",15 mg/kg-day
same,LC50,Tagia sp.,> 500 mg/kg
same,LEL,Typhlodromus pyri,30 g/ha
